# Assays:
# [1] = test system: B16 cells; experiment: Internalization of pHrodo red labeled anti-PD-L1 THIOMAB in cancer cells (IncuCyte); format: cell-based, mouse; conditions: 24 h, pHrodo red labeled antibody, control 98.53
# Method: (§1) After MC38 and B16 cells were treated for 24 hours with anti-PD-L1 THIOMAB labeled with pHrodo™ red dye, A. high-definition phase images, red fluorescence images and combined images of cells were collected by using an IncuCyte® viable cell system; B. a total red object integrated intensity histogram was obtained by analysis using IncuCyte® software, wherein the logarithm of 10 was taken for the ordinate data. Student's t test was used to compare significant differences between the groups, and p<0.0001 is represented by ****.
# (§2) The pHrodo™ red dye is known to be a pH sensitive fluorescent dye, which rapidly increases in molecular fluorescence intensity when the surrounding environment becomes acidic (Lehrman et al., 2018). When the dye was internalized into the cells along with the antigen-antibody complex, the pH of the environment around the dye was reduced to acidity, thereby producing an observable fluorescence signal. This property allowed the internalization process of the antibody to be monitored by using the pHrodo™ red dye. Through the IncuCyte® viable cell analysis system, the inventors could perform image-based monitoring and quantitative analysis on the internalization process of the anti-PD-L1 antibody labeled with the pHrodo™ red dye. […]
# [2] = test system: MC38 cells; experiment: as above; format: cell-based, mouse; conditions: 24 h, pHrodo red labeled antibody, control 84.88
# Method: as §1, §2
# [3] = test system: MC38 tumor; experiment: Anti-tumor activity and survival in MC38 mouse tumor model; format: in vivo; conditions: MC38 mice, i.p.; antibody drugs 150 μg per mouse, D18 25 μg per mouse; schedule Table 1
# From the text: A. Treatment with ADC HE-S2, single administration of anti-PD-L1 antibody, D18, or anti-PD-L1 THIOMAB, and anti-PD-L1 antibody/D18 combined administration for inhibitory activity against mouse MC38 tumor growth. B. Whole animal survival study. The ordinate of the curve represents the percentage of tumor-bearing mice that remained alive after different days, and the abscissa thereof represents the number of experimental days. C. Treatment with ADC HE-S2, single administration of anti-PD-L1 antibody, D18, or anti-PD-L1 THIOMAB, and anti-PD-L1 antibody/D18 combined administration for inhibitory activity against mouse MC38 tumor growth. Student's t test was used to compare significant differences between the groups, and p<0.001 is represented by ***.
# To verify the anti-cancer activity of ADC HE-S2, the inventors first made a mouse model with MC38. After the tumor was loaded, a visible tumor could be observed on the mouse surface for about one week. When the mean tumor tissue volume of the mice reached 100 mm^3, the mice were randomly grouped as follows according to the final type of drug administered: IgG isotype control antibody group (abbreviated as IgG), anti-PD-L1 antibody group (anti-PD-L1), anti-PD-L1 THIOMAB group (Thiomab), D18 group (D18), D18/anti-PD-L1 antibody combination treatment group (anti-PD-L1 & D18), and ADC HE-S2 group (ADC HE-S2), with 7-8 mice per group. The IgG isotype control antibody group, the anti-PD-L1 antibody (i.e., avelumab as described in Example 2) group, and the anti-PD-L1 THIOMAB (i.e., mutant antibody prepared in Example 2) group were administered twice a week via intraperitoneal injection of 150 μg per mouse for each time. The D18 group was administered twice a week via intraperitoneal injection of 25 μg per mouse for each time. In the D18/anti-PD-L1 antibody combination treatment group, the anti-PD-L1 antibody was dosed twice a week, 150 μg per mouse for each time; the D18 was dosed […], 25 μg per mouse for each time; in the ADC HE-S2 group, ADC HE-S2 was dosed once a week via intraperitoneal injection of 150 μg per mouse for each time; the anti-PD-L1 antibody was dosed once a week, staggered from the administration of the ADC, via intraperitoneal injection of 150 μg per mouse for each time.
# Dosage: Antibody drugs, administered 150 μg per mouse for each time, and D18, administered 25 μg per mouse for each time. - means no administration on the day. * Only mice with MC38 tumor model were allowed to be administered until the 24th day, and mice with B16 tumor model were no longer administered after the 21st day.
substance,measurement,setting,value
"anti-PD-L1 THIOMAB: mutant avelumab, light chain V205C (SEQ ID NO: 9), heavy chain SEQ ID NO: 4; pHrodo red labeled in internalization tests",total red object integrated intensity,[1],283613.60
same,total red object integrated intensity,[2],13701.63
same,inhibitory activity against MC38 tumor growth,[3],slightly superior to the efficacy of the IgG isotype antibody
